Where two headings read alike, the source gives them in different places.
Assay: diffusion of drug through egg shell membrane in diffusion cell
Format: in vitro ADME
Procedure: A diffusion cell was partitioned by an egg shell membrane. […] While maintaining a temperature of 37° C., the two liquid phases were stirred, and after a lapse of a predetermined period of time, the amount of the drug which diffused into the acceptor side from the donor side was measured.
The diffusion cell used was a glass cell for use in an ordinary diffusion experiment. The egg shell was obtained by removing the contents of an egg from the shell, immersing the shell in 0.7% acetic acid for 30 minutes, subjecting it to ultrasonication for 15 minutes, and carefully peeling the membrane from the shell.
A control test was carried out in the same way as above except that only the drug was added to the donor side.
The amount of the drug which diffused to the acceptor side was measured 30 minutes later, and compared with the control.
The relative amount of the drug diffused from the drug-penetration enhancer system was calculated by taking the amount of the drug diffused from the control donor side as 100. […] Bull., Vol. 20, p.

[1] = 30 minutes, drug 0.05% with compound (168) 1.0% on donor side, drug alone = 100, 37° C.

Row | Compound | Relative amount of the drug diffused [1] | Relative amount of the drug diffused
1 | COc1ccc2c(c1)c(CC(=O)O)c(C)n2C(=O)c1ccc(Cl)cc1 [Indomethacin] | 217 | 
2 | O=C(O)c1cc(=O)c2c(OCC(O)COc3cccc4oc(C(=O)O)cc(=O)c34)cccc2o1 [Sodium cromoglicate] |  | 159
3 | O=c1[nH]cc(F)c(=O)[nH]1 [5-Fluorouracil] | 208 | 
4 | C[C@](N)(Cc1ccc(O)c(O)c1)C(=O)O [Methyldopa] | 137 | 
5 | C=C1/C(=C\C=C2/CCC[C@]3(C)[C@@H]([C@H](C)CCCC(C)(C)O)CC[C@@H]23)C[C@@H](O)C[C@@H]1O [1,25-Dihydroxyvitamin D3] |  | 123
6 | Urokinase | 115 | 
7 | iso-Sorbitol nitrate | 128 | 
8 | CC(=O)OCC1=C(C(=O)O)N2C(=O)[C@@H](NC(=O)Cc3cccs3)[C@H]2SC1 [Cephalothin] | 139 | 
9 | Nc1ccc(C(=O)O)cc1 [p-Aminobenzoic acid] |  | 122
